“And” between values parts separate entries of the source, which are not always exact repeats. Identical values can stand only once. “Also recorded” adds a separate entry of the source. Values belong to the molecule of their own block, whether it stands above or below them. Positions of bridges follow the written chain, without caps; N, C: chain ends. Non-standard residues stand in square brackets, D forms with d. Residues, ends and D or L forms follow the SMILES beside them. No end group written: not given here. d2Nal = N[C@H](Cc1ccc2ccccc2c1)C(=O)O; Nle = CCCC[C@H](N)C(=O)O
Assays:
human MC3R = molecular target: T1, human MC3R (Homo sapiens, UniProt P41968); assay: cAMP accumulation assay (HTRF), antagonist activity at MC3R; assay type: cell-based; conditions: for Emax / IC50: HEK293/CRE-luc/MC3R; for Emax: 0.1 nM to 1,000 nM, read-out: Max Activation %; for IC50: estimated from dose-response curve
T1 construct: expressed in transfected cells; host or cells: HEK293/CRE-luc/MC3R
T1 sequence (P41968 whole entry): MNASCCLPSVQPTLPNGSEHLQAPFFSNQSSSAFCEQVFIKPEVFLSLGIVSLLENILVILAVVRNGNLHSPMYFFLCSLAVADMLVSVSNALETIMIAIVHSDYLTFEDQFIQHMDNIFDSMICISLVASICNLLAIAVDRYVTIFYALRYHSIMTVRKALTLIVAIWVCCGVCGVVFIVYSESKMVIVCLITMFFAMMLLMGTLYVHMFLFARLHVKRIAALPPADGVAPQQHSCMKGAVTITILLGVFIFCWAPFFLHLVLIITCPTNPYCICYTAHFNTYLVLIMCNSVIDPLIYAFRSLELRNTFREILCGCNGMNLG
Experimental: (§1) The antagonist activity of exemplary non-naturally occurring melanocortin analogs (SEQ ID NOs: 3, 4, 6, 9-11, 14, 15, and 291-309) at the melanocortin 3 receptor (MC3R) and melanocortin 4 (MC4R) receptor was measured via cAMP accumulation assay, according to the following procedure.
(§2) Recombinant cell lines shown in Table 1 were stimulated with melanocortin receptor antagonists and evaluated for cyclic adenosine monophosphate (cAMP) levels as a measurement of receptor activation. cAMP levels were quantified using Homogeneous Time-Resolved Fluorescence (HTRF). The stimulation and CAMP measurement were performed sequentially. First, the compound stimulated the G-protein coupled receptor (GPCR) which then induced downstream signaling, which was measured soon after. Cell lines and stimulated receptors used are detailed in Table 1.
(§3) Twenty-seven exemplary synthetic peptides were tested for antagonist activity at the human MC3R and MC4R at concentrations ranging from 0.1 nM to 1,000 nM. After stimulation, the level of cyclic adenosine monophosphate (CAMP) in each well was quantified via Homogenous Time-Resolved Fluorescence (HTRF) as a measurement of receptor activity. Dose-response curves and estimated IC50 values were then obtained for each antagonist peptide against the MC3R and MC4R. HS024 (TFA) and was used as a positive control for the antagonist activity of MC3R (FIG. 1A) and MC4R (FIG. 1B).

human MC4R = molecular target: T2, human MC4R (Homo sapiens, UniProt P32245); assay: cAMP accumulation assay (HTRF), antagonist activity at MC4R; assay type: cell-based; conditions: for Emax: HEK293, HEK293/MC4R/CRE-GFP, 0.1 nM to 1,000 nM, read-out: Max Activation %; for IC50: HEK293/MC4R/CRE-GFP, estimated from dose-response curve
T2 construct: expressed in transfected cells; host or cells: HEK293/MC4R/CRE-GFP
T2 sequence (P32245 whole entry): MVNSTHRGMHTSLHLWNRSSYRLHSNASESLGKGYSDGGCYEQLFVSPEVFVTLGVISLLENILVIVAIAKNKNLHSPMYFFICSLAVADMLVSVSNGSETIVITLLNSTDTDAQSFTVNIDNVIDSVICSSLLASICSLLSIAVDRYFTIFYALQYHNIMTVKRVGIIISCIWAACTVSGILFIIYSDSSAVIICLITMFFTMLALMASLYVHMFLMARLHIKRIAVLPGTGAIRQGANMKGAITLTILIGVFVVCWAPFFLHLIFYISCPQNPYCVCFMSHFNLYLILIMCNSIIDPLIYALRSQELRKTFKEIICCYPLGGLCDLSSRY
Experimental: as §1, §2, §3

Lewis sarcoma rat = assay: Reversal of cachexia-induced lethargy; assay type: in vivo; conditions: once-daily peripheral dosing for 48 hours (2 IP doses)
Excerpt: In animals and humans, cachexia produces “lethargy,” i.e., the aversion to activity. Grossberg et al., J. Neurosci. 31 (31): 11376-11386. […] This therapeutic effect is dependent on a stabilized non-naturally occurring melanocortin analog C-terminal extension. Video recordings characterized control animal behavior as neo-exploratory movement about the cage, i.e., repeated “sniffing” the air to presumably sample odors (e.g., neighboring animals), grooming, and intermittent bouts of eating and drinking. Caldecott-Hazard et al., J. Neurosci. 8 (6): 1951-1961 (1988).
The animal typically remains in one position for an extended period of time (>1 minute). Occasionally it will change position, assuming the new position for an extended period. The rats show no grooming behavior, evident in the appearance of their coat and eyes.

LPS model of cachexia = assay: LPS-induced cachexia assay in rats; assay type: in vivo, rat; conditions: for peripheral (IP) anti-cachexia activity / blood-brain barrier transport: peripheral administration
Experimental: The LPS model uses rats were maintained on a 12 h light/dark schedule with ad libitum access to food and water. Animals were handled daily for a minimum of three consecutive days to decrease non-specific handling stress. On the day of the experiment, individually housed animals received intraperitoneal injections of LPS dissolved in 0.5% low-endotoxin BSA, 0.9% saline or 0.5% BSA in 0.9% saline alone, and were returned to their home cage. The drug or control was administered (ICV, IP, or PO, depending on the type of study) 1-hour after LPS injection.
In the experiments performed in accordance with the present technology, a series of melanocortin receptor antagonist peptides were examined in a bacterial endotoxin inducing cachexia assay. For this assay, a rat is challenged with a single peripheral injection of lipopolysaccharide (LPS). LPS is a heat-stable lipo-polysaccharide, the major component of the outer membrane (capsule) of gram negative bacteria. In non-capsulated strains, it appears as a cell surface protein. LPS produces a strong immune response, including secretion of the proinflammatory cytokines Tumor Necrosis Factor α (TNFα) and interleukin-1 (IL-1). Proinflammatory cytokines are known factors that induce cachexia.
Rats are maintained on a 12-hour light/dark cycle. Animals are handled daily for a minimum of 5 consecutive days to acclimate them to the handling required for the experiment. […] On the day of the experiment, individually housed animals receive intraperitoneal (IP) injections of LPS dissolved in 0.5% low-endotoxin BSA, 0.9% saline or 0.5% BSA in 0.9% saline alone, and returned in their home cage. Melanocortin receptor antagonist peptides were administered (IP or by gavage, depending on the type of study) one hour after the LPS injection. The extent of cachexia is measured by the reduction in food intake, measured every two hours. The cachexia typically lasts only a single day. However, rats lose up to 5% of their body weight during a 12-hour light cycle, making up this loss plus food needed for normal growth during the 12-hour dark cycle. Thus, failure to eat appropriately during a single dark cycle is determinable from the animal's weight and any changes thereof.
A series of melanocortin receptor antagonist peptides were examined in a bacterial toxin inducing cachexia assay. In this assay, a rat was challenged with a single peripheral injection of lipopolysaccharide (LPS), a bacterial toxin that rapidly induces acute cachexia. The extent of cachexia was measured as a reduction in food intake, measured every two hours. The cachexia typically lasts only a single day.

[1] = TCMCB07 in plasma and cerebrospinal fluid after IV administration (blood-brain barrier transport); assay type: in vivo, rat
Experimental: Urethane-anesthetized rats had polyethylene (PE)-tubing cannulas placed in their femoral artery and vein. Each rat was then placed in a small animal stereotaxic apparatus, their head fixed in the lateral plane with ear bars, and their head placed in a 45-50° downward angle by placing their nose below an adjustable tooth bar. This position placed the animal's cistern magna at the highest vertical position of its body. The dural covering of the dorsal cistern magna was exposed.
A stainless steel cannula, with one end attached to PE-tubing, was placed in a stereotaxic tower cannula holder (open end down). The free end of the PE-tubing was attached to a 100 µL gas-tight Hamilton syringe with a 28-gauge needle. The cannula was adjusted to a position that approximated the middle of the exposed cistern magna, and the cannula lowered until it touched the dura mater. […] The dura has a degree of flexibility such that the cannula can depress it before it pierces it. […]
For the experimental procedure, baseline samples of blood and CSF were taken (“O” time points), followed by the IV administration of 750 nmol/kg TCMCB07. […] Both CSF and plasma were stored at −80° C. until analyzed by (HPLC) with spectrofluoremetric monitoring at 230 nm excitation and […] (the fluorescence maximum for the Nal residue). […]

[2] = Phase 1 clinical trial (NCT05529849), safety; assay type: in vivo, human; conditions: 5 SAD and 3 MAD cohorts
Excerpt: Safety results of the single center, inpatient, double-blind, randomized, sequential assessment of 5 SAD (1a-5a) and 3 MAD (1b-3) cohorts dosed over 5 days TCMCB07 Phase 1 Clinical Trial (NCT05529849) have been summarized in FIG. 25. The entirety of the TCMCB07 Phase 1 Clinical Trial (NCT05529849) is incorporated herein by reference.

Lewis sarcoma rat model [3] = conditions: previously published results; cited from earlier work
Lewis sarcoma rat model [4] = assay: Lewis sarcoma rat model of cancer cachexia; assay type: in vivo; conditions: 2 nmol once per day
Experimental: This sarcoma is an aggressive form of cancer that produces significant cachexia. Popp et al., Cancer 49 (6): 1212-1220 (1982). In the protocol, “treatment” began 8-days after tumor implantation, with a significant decrease in food intake from baseline. Body composition was determined by NMR prior to tumor implantation, and on the final day of the experiment after tumor resection, by ECHO MRI (NMR). Tumor implantation produces cachexia on or about the sixth day. The non-naturally occurring melanocortin analog or saline was administered after day 8 and continued through day 12.

[5] = tested on: urethane-anesthetized rats; conditions: rat, in vivo
Experimental: These studies were performed in urethane-anesthetized rats, since anesthesia is required for six-lead ECG monitoring. […] Initial selection of doses was guided by FDA exploratory IND studies with a recommendation for at least a 100-fold excess of the human dose.

[6] = molecular target: human melanocortin 4 receptor (MC4R) (human) (UniProt P32245); assay: cell-based or functional assay
Sequence of human melanocortin 4 receptor (MC4R) (human) (P32245 whole entry): as above

[7] = molecular target: human melanocortin 3 receptor (MC3R) (human) (UniProt P41968); assay: cell-based or functional assay
Sequence of human melanocortin 3 receptor (MC3R) (human) (P41968 whole entry): as the sequence (P41968 whole entry) above

- Emax (human MC3R): 101%
- IC50 (human MC3R): < 10 µM
- Hill Coefficient (human MC3R; dose-response fit, MC3R): 1.03
- Top (%) (human MC3R; dose-response fit, MC3R): 120.45%
- Emax (human MC4R): 120%
- IC50 (human MC4R): < 10 µM
- Hill Coefficient (human MC4R; dose-response fit, MC4R): 0.69
- Top (%) (human MC4R; dose-response fit, MC4R): 127.47%
Molecule: CCCC[C@H](NC(C)=O)C(=O)N[C@H]1CC(=O)NCCCC[C@@H](C(=O)N2CCC[C@@H]2C(=O)N[C@@H](C(N)=O)C(C)C)NC(=O)[C@H](Cc2c[nH]c3ccccc23)NC(=O)[C@H](CCCNC(=N)N)NC(=O)[C@@H](Cc2ccc3ccccc3c2)NC(=O)[C@@H]2CCCN2C1=O [TCMCB02, Ac-Nle-c[Asp-Pro-dNal(2′)-Arg-Trp-Lys]-dPro-dVal-NH2] (Ac-[Nle]DP[d2Nal]RWK[dP][dV]-NH2; lactam 2-7)
- behavior (lethargy) (Lewis sarcoma rat): restored “normal” behavior to rats
- body weight gain overnight (LPS model of cachexia; 2 mg/kg, IP): ~5%
- food intake, 12-hours overnight (LPS model of cachexia; 2 mg/kg, IP, baseline = previous 4-day average): 65 % of baseline
- anti-cachectic activity after ICV administration (LPS model of cachexia): equivalent to TCMCB01
- oral activity / gastrointestinal transport (LPS model of cachexia; gavage (intra-gastric)): did not have oral activity; also recorded: had no oral activity
- peripheral (IP) anti-cachexia activity / blood-brain barrier transport (LPS model of cachexia): has peripheral activity, significantly reversing LPS-induced cachexia; also recorded: produced anti-cachexia following peripheral administration
- anti-cachectic activity relative to the parent compound (LPS model of cachexia; rat, in vivo): 10 fold

- IC50 (cAMP by HTRF, antagonist dose-response) [6]: 0.153 µM
- Max Activation % [6]: 104%
- IC50 (cAMP by HTRF, antagonist dose-response) [7]: 0.867 µM
- Max Activation % [7]: 102%
Molecule: HS024 (TFA) (peptide)

More lines, now with the values behind:

Molecule: CCCC[C@H](NC(C)=O)C(=O)N[C@H]1CC(=O)NCCCC[C@@H](C(=O)N[C@@H](C(=O)N2CCC[C@@H]2C(N)=O)C(C)C)NC(=O)[C@H](Cc2c[nH]c3ccccc23)NC(=O)[C@H](CCCN=C(N)N)NC(=O)[C@@H](Cc2ccc3ccccc3c2)NC(=O)[C@@H]2CCCN2C1=O [TCMCB07, Ac-Nle-c[Asp-Pro-dNal(2′)-Arg-Trp-Lys]-dVal-dPro-NH2] (Ac-[Nle]DP[d2Nal]RWK[dV][dP]-NH2; lactam 2-7)
- Emax (human MC3R): 112%
- IC50 (human MC3R): < 10 µM and 0.0434 µM
- presence in CSF / transport through the blood-brain-barrier ([1]; IV 750 nmol/kg, HPLC effluent by mass spectrometry): confirmed the presence of TCMCB07 in CSF; also recorded: direct physical evidence of TCMCB07 transport through the blood-brain-barrier
- level at time molar at 2 min ([1]; rat, plasma, 2 minutes post-intravenous administration, 750 nmol/kg, read-out: Concentration in plasma): 7 µM
- Emax (human MC4R): 118%
- IC50 (human MC4R): < 10 µM and 0.0269 µM
- CAEs [2]: zero
- clinically relevant abnormal laboratory test results [2]: zero
- clinically relevant abnormal physical exams [2]: zero
- drug-related SAEs [2]: zero
- patients having abnormal ECGs [2]: zero

Molecule: AGRP: natural melanocortin system inhibitor; naturally occurring melanocortin antagonist protein (SSRRCVRLHESCLGQQVPCCDPCATCYCRFFNAFCYCRKLGTAMNPCSRT; ends and bridges not checked; cysteine pairing not given here; UniProt O00253 83-132, looked up)
- reversal of feeding / cachexia-anorexia syndrome in cachexia models (Lewis sarcoma rat model [3]): 100%

Molecule: Ac-Nle-c[Asp-His-DNal(2′)-Arg-Trp-Lys]-NH2 [SHU9119]
- reversal of anorexia (Lewis sarcoma rat model [4]): about 70 % of that observed with AGRP
- Peak Heart Rate Response (BPM) [5]: 16 ± 5/3 ± 14 BPM
- Peak MAP Response (Δ mm Hg) [5]: 16 ± 5/3 ± 14 mm Hg

Molecule: Ac-Nle-c[Asp-Pro-DNal(2′)-Arg-Trp-Lys]-β^3Pro-β^2Val-NH2 [TCMCB05]
- behavior (lethargy) (Lewis sarcoma rat): restored “normal” behavior to rats
- food intake and body weight, 24-hours (LPS model of cachexia; 0.2 mg/kg intraperitoneally): had stimulated appetites and gained weight
- anti-cachectic activity after ICV administration (LPS model of cachexia): molar activity equivalent to TCMCB02
- molar activity relative to TCMCB02 (LPS model of cachexia; ICV-administration): 10 fold
- peripheral (IP) anti-cachexia activity / blood-brain barrier transport (LPS model of cachexia): had IP anti-cachexia activity; also recorded: had peripheral anti-cachexia activity
